From ChEMBL document CHEMBL4732096, “Design, synthesis and evaluation of calix[4]arene-based carbonyl amide derivatives with antitumor activities” (Eur J Med Chem, 2021)
Activity calls are given as the source filed them. The calls are words filed in the database; no cut-off is given here.

Columns and labels:
HepG2 = experiment: Antiproliferative activity against human HepG2 cells assessed as inhibition of cell growth at 10 uM measured after 72 hrs by MTT assay relative to control; assay type: functional
HT-29 = experiment: Antiproliferative activity against human HT-29 cells assessed as inhibition of cell growth at 10 uM measured after 72 hrs by MTT assay relative to control; assay type: functional
MDA-MB-231 [1] = experiment: Antiproliferative activity against human MDA-MB-231 cells assessed as inhibition of cell growth at 10 uM measured after 72 hrs by MTT assay relative to control; assay type: functional
MCF7 = experiment: Antiproliferative activity against human MCF7 cells assessed as inhibition of cell growth at 10 uM measured after 72 hrs by MTT assay relative to control; assay type: functional
A549 [2] = experiment: Antiproliferative activity against human A549 cells assessed as inhibition of cell growth at 10 uM measured after 72 hrs by MTT assay relative to control; assay type: functional
[3] = Cytotoxicity against HUVEC cells assessed as inhibition of cell growth at 10 uM measured after 72 hrs by MTT assay; assay type: cell-based; settings: human
A549 [4] = experiment: Antiproliferative activity against human A549 cells assessed as inhibition of cell growth measured after 72 hrs by MTT assay; assay type: functional, cell-based; settings: A549, 72 h
MDA-MB-231 [5] = experiment: Antiproliferative activity against human MDA-MB-231 cells assessed as inhibition of cell growth measured after 72 hrs by MTT assay; assay type: functional, cell-based; settings: MDA-MB-231, 72 h
A549 [6] = experiment: Potency index, ratio of IC50 of CLX-4 to IC50 of compound for antiproliferative activity against human A549 cells assessed as inhibition of cell growth measured after 72 hrs by MTT assay; assay type: functional
MDA-MB-231 [7] = experiment: Potency index, ratio of IC50 of CLX-4 to IC50 of compound for antiproliferative activity against human MDA-MB-231 cells assessed as inhibition of cell growth measured after 72 hrs by MTT assay; assay type: functional
MDA-MB-231 [8] = experiment: Induction of morphological changes in human MDA-MB-231 cells assessed as rounded cell morphology at 10 to 100 uM by optical inverted microscopic analysis; assay type: functional, cell-based; settings: dose 10-100 µM
MDA-MB-231 [9] = experiment: Induction of morphological changes in human MDA-MB-231 cells assessed as cell shrinkage at 10 to 100 uM by optical inverted microscopic analysis; assay type: functional, cell-based; settings: dose 10-100 µM
MDA-MB-231 [10] = experiment: Induction of morphological changes in human MDA-MB-231 cells assessed as shedding of cell morphology at 10 to 100 uM by optical inverted microscopic analysis; assay type: functional, cell-based; settings: dose 10-100 µM
MDA-MB-231 [11] = experiment: Antimigratory activity in human MDA-MB-231 cells assessed as cell migration at 2 uM measured after 48 hrs by wound healing assay (reference value: 67.4 %); assay type: functional
MDA-MB-231 [12] = experiment: Antimigratory activity in human MDA-MB-231 cells assessed as cell migration at 4 uM measured after 48 hrs by wound healing assay (reference value: 67.4 %); assay type: functional
MDA-MB-231 [13] = experiment: Antimigratory activity in human MDA-MB-231 cells assessed as cell migration at 8 uM measured after 48 hrs by wound healing assay (reference value: 67.4 %); assay type: functional
MDA-MB-231 [14] = experiment: Antimigratory activity in human MDA-MB-231 cells assessed as reduction in cell migration measured after 48 hrs by wound healing assay; assay type: functional, cell-based
MDA-MB-231 [15] = experiment: Induction of apoptosis in human MDA-MB-231 cells assessed as viable cells at 0.2 uM measured after 48 hrs by Annexin V-FITC/propidium iodide staining based flow cytometry (reference value: 94.1 %); assay type: functional; settings: read-out: Activity
MDA-MB-231 [16] = experiment: Induction of apoptosis in human MDA-MB-231 cells assessed as early apoptotic cells at 0.2 uM measured after 48 hrs by Annexin V-FITC/propidium iodide staining based flow cytometry (reference value: 1.03 %); assay type: functional
MDA-MB-231 [17] = experiment: Induction of apoptosis in human MDA-MB-231 cells assessed as late apoptotic cells at 0.2 uM measured after 48 hrs by Annexin V-FITC/propidium iodide staining based flow cytometry (reference value: 4.5 %); assay type: functional
MDA-MB-231 [18] = experiment: Induction of apoptosis in human MDA-MB-231 cells assessed as necrotic cells at 0.2 uM measured after 48 hrs by Annexin V-FITC/propidium iodide staining based flow cytometry (reference value: 0.36 %); assay type: functional
MDA-MB-231 [19] = experiment: Induction of apoptosis in human MDA-MB-231 cells assessed as viable cells at 2 uM measured after 48 hrs by Annexin V-FITC/propidium iodide staining based flow cytometry (reference value: 94.1 %); assay type: functional; settings: read-out: Activity
MDA-MB-231 [20] = experiment: Induction of apoptosis in human MDA-MB-231 cells assessed as early apoptotic cells at 2 uM measured after 48 hrs by Annexin V-FITC/propidium iodide staining based flow cytometry (reference value: 1.03 %); assay type: functional
MDA-MB-231 [21] = experiment: Induction of apoptosis in human MDA-MB-231 cells assessed as late apoptotic cells at 2 uM measured after 48 hrs by Annexin V-FITC/propidium iodide staining based flow cytometry (reference value: 4.5 %); assay type: functional
MDA-MB-231 [22] = experiment: Induction of apoptosis in human MDA-MB-231 cells assessed as necrotic cells at 2 uM measured after 48 hrs by Annexin V-FITC/propidium iodide staining based flow cytometry (reference value: 0.36 %); assay type: functional
MDA-MB-231 [23] = experiment: Induction of apoptosis in human MDA-MB-231 cells assessed as viable cells at 20 uM measured after 48 hrs by Annexin V-FITC/propidium iodide staining based flow cytometry (reference value: 94.1 %); assay type: functional; settings: read-out: Activity
MDA-MB-231 [24] = experiment: Induction of apoptosis in human MDA-MB-231 cells assessed as early apoptotic cells at 20 uM measured after 48 hrs by Annexin V-FITC/propidium iodide staining based flow cytometry (reference value: 1.03 %); assay type: functional
MDA-MB-231 [25] = experiment: Induction of apoptosis in human MDA-MB-231 cells assessed as late apoptotic cells at 20 uM measured after 48 hrs by Annexin V-FITC/propidium iodide staining based flow cytometry (reference value: 4.5 %); assay type: functional
MDA-MB-231 [26] = experiment: Induction of apoptosis in human MDA-MB-231 cells assessed as necrotic cells at 20 uM measured after 48 hrs by Annexin V-FITC/propidium iodide staining based flow cytometry (reference value: 0.36 %); assay type: functional
MDA-MB-231 [27] = experiment: Induction of cell cycle arrest in human MDA-MB-231 cells assessed as increase in accumulation in G0/G1 phase at 0.2 to 20 uM measured after 48 hrs by propidium iodide staining based flow cytometry; assay type: functional; settings: dose 0.2-20 µM
MDA-MB-231 [28] = experiment: Induction of apoptosis in human MDA-MB-231 cells assessed as increase in caspase-3 activation at 0.4 to 10 uM measured after 48 hrs by Western blot analysis; assay type: functional, cell-based; settings: dose 0.4-10 µM
MDA-MB-231 [29] = experiment: Induction of apoptosis in human MDA-MB-231 cells assessed as increase in cleaved PARP level at 0.4 to 10 uM measured after 48 hrs by Western blot analysis; assay type: functional, cell-based; settings: dose 0.4-10 µM
MDA-MB-231 [30] = experiment: Induction of apoptosis in human MDA-MB-231 cells assessed as increase in Bax expression at 0.4 to 10 uM measured after 48 hrs by Western blot analysis; assay type: functional, cell-based; settings: dose 0.4-10 µM
MDA-MB-231 [31] = experiment: Induction of apoptosis in human MDA-MB-231 cells assessed as decrease in Bcl-2 expression at 0.4 to 10 uM measured after 48 hrs by Western blot analysis; assay type: functional, cell-based; settings: dose 0.4-10 µM
MDA-MB-231 [32] = experiment: Induction of apoptosis in human MDA-MB-231 cells assessed as increase in ratio of Bax/Bcl-2 at 0.4 to 10 uM measured after 48 hrs by Western blot analysis; assay type: functional, cell-based; settings: dose 0.4-10 µM
MDA-MB-231 [33] = experiment: Induction of cell cycle arrest in human MDA-MB-231 cells assessed as decrease in CDK4 expression at 0.4 to 10 uM measured after 48 hrs by Western blot analysis; assay type: functional, cell-based; settings: dose 0.4-10 µM
MDA-MB-231 [34] = experiment: Induction of cell cycle arrest in human MDA-MB-231 cells assessed as decrease in CyclinD1 expression at 0.4 to 10 uM measured after 48 hrs by Western blot analysis; assay type: functional, cell-based; settings: dose 0.4-10 µM
MDA-MB-231 [35] = experiment: Induction of apoptosis in human MDA-MB-231 cells assessed as increase in fluorescence intensity at 0.2 to 20 uM measured after 48 hrs by Hoechst 33342 staining based fluorescence microscopic analysis; assay type: functional, cell-based; settings: dose 0.2-20 µM
MDA-MB-231 [36] = experiment: Induction of apoptosis in human MDA-MB-231 cells assessed as nuclear condensation at 0.2 to 20 uM measured after 48 hrs by Hoechst 33342 staining based fluorescence microscopic analysis; assay type: functional, cell-based; settings: dose 0.2-20 µM
MDA-MB-231 [37] = experiment: Induction of apoptosis in human MDA-MB-231 cells assessed as nuclear rupture at 0.2 to 20 uM measured after 48 hrs by Hoechst 33342 staining based fluorescence microscopic analysis; assay type: functional, cell-based; settings: dose 0.2-20 µM
MDA-MB-231 [38] = experiment: Induction of apoptosis in human MDA-MB-231 cells assessed as increase in apoptotic bodies at 0.2 to 20 uM measured after 48 hrs by Hoechst 33342 staining based fluorescence microscopic analysis; assay type: functional, cell-based; settings: dose 0.2-20 µM

## CCC(Oc1c2cc(C(C)(C)C)cc1Cc1cc(C(C)(C)C)cc(c1O)Cc1cc(C(C)(C)C)cc(c1OC(CC)C(=O)N(CCO)CCO)Cc1cc(C(C)(C)C)cc(c1O)C2)C(=O)N(CCO)CCO (stereo unspecified)
HepG2
  inhibition at 10 µM: 89.6%
HT-29
  inhibition at 10 µM: 64.2%
MDA-MB-231 [1]
  inhibition at 10 µM: 88.2%
MCF7
  inhibition at 10 µM: 90.4%
A549 [2]
  inhibition at 10 µM: 90.7%
[3]
  inhibition at 72 h, 10 µM: 9.6%
A549 [4]
  IC50: 1200 nM
MDA-MB-231 [5]
  IC50: 660 nM
A549 [6]
  Ratio IC50: 3.2
MDA-MB-231 [7]
  Ratio IC50: 6.8
MDA-MB-231 [8]
  Activity: Active
MDA-MB-231 [9]
  Activity: Active
MDA-MB-231 [10]
  Activity: Active
MDA-MB-231 [11]
  Activity: 76.9%
MDA-MB-231 [12]
  Activity: 79%
MDA-MB-231 [13]
  Activity: 84%
MDA-MB-231 [14]
  Activity: Dose-dependent effect
MDA-MB-231 [15]
  viability at 0.2 µM: 65.5%
MDA-MB-231 [16]
  Activity: 12.3%
MDA-MB-231 [17]
  Activity: 21.2%
MDA-MB-231 [18]
  Activity: 1.13%
MDA-MB-231 [19]
  viability at 2 µM: 56.9%
MDA-MB-231 [20]
  Activity: 22.1%
MDA-MB-231 [21]
  Activity: 20.7%
MDA-MB-231 [22]
  Activity: 0.34%
MDA-MB-231 [23]
  viability at 20 µM: 39%
MDA-MB-231 [24]
  Activity: 19.2%
MDA-MB-231 [25]
  Activity: 40.4%
MDA-MB-231 [26]
  Activity: 1.37%
MDA-MB-231 [27]
  Activity: Active
MDA-MB-231 [28]
  Activity: Active
MDA-MB-231 [29]
  Activity: Active
MDA-MB-231 [30]
  Activity: Active
MDA-MB-231 [31]
  Activity: Active
MDA-MB-231 [32]
  Activity: Active
MDA-MB-231 [33]
  Activity: Active
MDA-MB-231 [34]
  Activity: Active
MDA-MB-231 [35]
  Activity: Active
MDA-MB-231 [36]
  Activity: Active
MDA-MB-231 [37]
  Activity: Active
MDA-MB-231 [38]
  Activity: Active
